Target: T1, human serotonin 5-HT1A receptor (5-HT1AR) (Homo sapiens, UniProt P08908)
T1 construct: purchased Perkin Elmer
T1 sequence (P08908 1-422): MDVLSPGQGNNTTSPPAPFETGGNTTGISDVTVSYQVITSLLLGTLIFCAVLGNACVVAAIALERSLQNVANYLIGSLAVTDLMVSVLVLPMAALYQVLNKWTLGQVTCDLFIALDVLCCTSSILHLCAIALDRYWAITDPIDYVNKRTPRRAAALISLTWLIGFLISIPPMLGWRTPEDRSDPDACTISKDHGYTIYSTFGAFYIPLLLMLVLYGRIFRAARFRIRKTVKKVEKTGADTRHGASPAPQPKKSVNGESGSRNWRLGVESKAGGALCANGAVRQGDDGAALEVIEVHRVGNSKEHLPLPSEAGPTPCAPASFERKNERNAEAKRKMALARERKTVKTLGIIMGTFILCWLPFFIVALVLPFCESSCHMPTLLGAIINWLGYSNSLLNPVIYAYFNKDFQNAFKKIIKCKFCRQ
Assay: 5-HT1A activity assay via microplate reader (BODIPY-GTPγS unquenching) in pGUPs
Type: biochemical
Details: for Rate (protein functional rate): agonist 8-OH-DPAT, 37° C., 12 hours
Description: Fluorescence unquenching of BODIPY-GTPγS due to G protein binding was monitored every 5 minutes. Tracked fluorescence over time was first calculated as percent intensity increase to account for variation in sample size. Curves represent six independent replicates of the same experimental protocol and each time point is an average of the intensity increase. Curves were then normalized for ease in viewing the differences in protein functional rate.
25 mm no. 1 coverslips were cleaned via sonication in MeOH for 30 minutes at 35° C. Coverslips were dried and were further plasma treated in a PDC-32G benchtop plasma cleaner (Harrick Plasma, USA) for 15 minutes. Coverslips were held in Sykes-Moore chambers for vesicle formation. Protein-incorporated polymeric giant unilamellar protein-vesicles (pGUPs) were formed using methods similar to those previously published for lipid vesicles. Briefly, a 1:1 v/v mixture of membrane fragment suspension and agarose (3% w/v) at 45° C. was drop casted onto coverslips for thin film formation. The hydrogel film was allowed to gel and a film of polymer solution (5 mg/ml in CHCl3) was subsequently made. Solvent was evaporated using a stream of N2 gas. […] Vesicles were harvested from the coverslip and diluted in 3× of an isoosmotic glucose solution (200 mM glucose in PBS, pH 7.4). (p)GUPs were allowed to sediment in glucose for 30 minutes at room temperature.
Prepared and settled pGUPs were transferred to a flat bottom 96-well plate. Agonist 8-OH-DPAT was added to each well to a final concentration of 150 nM immediately prior to reading fluorescence. Control pGUPs were run without the addition of the agonist. Rehydration buffer with and without agonist and protein were read as positive and negative controls. Samples were read at physiological temperature (37° C.) every 5 minutes for twelve hours to ensure complete activity assessment. Fluorescence reading of BODIPY-GTPγS unquenching was done on a Biotek Synergy H4 Microplate Reader equipped with a xenon flash lamp. Excitation was set to 485/20 nm and emission at 528/20 nm at a read height of 7 mm.
Fluorescence microtiter results were collect and analyzed using JMP. Six separate observations were fitted and averaged to obtain a single curve with standard error mean values. Rates were fitted to the JMP Mechanistic Growth curve using a single exponential. Statistical analysis using a Tukey-Kramer pairwise comparison of means were done using JMP with a 95% confidence interval (α=0.05).

| Rate (protein functional rate) (14 μM antagonist in pGUPs) | Effect on protein functional rate (antagonist in pGUPs) | Rate (protein functional rate) (14 pM antagonist in pGUPs) | Rate (protein functional rate) (14 nM antagonist in pGUPs) | SMILES |
| --- | --- | --- | --- | --- |
| 0.057 min⁻¹ | reduce the protein functional rate | – | – | COc1ccccc1N1CCN(CCCCN2C(=O)c3ccccc3C2=O)CC1 [NAN-190] |
| 0.077 min⁻¹ | – | 0.102 min⁻¹ | 0.096 min⁻¹ | O=C(CCCN1CCC2(CC1)C(=O)NCN2c1ccccc1)c1ccc(F)cc1 [Spiperone, spiperone] |

From patent US20180177729A1, “G PROTEIN-COUPLED RECEPTORS INCORPORATED INTO REHYDRATED POLYMER VESICLES RETAIN FUNCTIONALITY” (UNIVERSITY OF SOUTHERN CALIFORNIA, priority 2016, published 2018)
